# Data published in US20250302832A1, “PYRAZINE DERIVATIVES AND USES THEREOF” (FOGHORN THERAPEUTICS INC., priority 2022, published 2025).
# Columns and labels:
# HiBit-BRM fusion protein = molecular target: T1, HiBit-BRM fusion protein (Homo sapiens, UniProt P51531); test: HiBiT-BRM cell-based degradation assay (Nano-Glo HiBiT lytic detection, 24 h); conditions: HeLa cell line expressing HiBiT-BRM; for DC50: read-out: BRM HiBit Degradation IC50
# T1 construct: expressed in transfected cells
# Summary of the method: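 Luminescence from LgBiT complementation quantified remaining HiBiT-BRM in stably expressing HeLa cells after 24 h compound exposure (top final dose 30 μM, 3-fold, 10 points, duplicate). Degradation expressed as percent relative to DMSO and a 2 μM reference degrader.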
# [1] = molecular target: T2, HiBit-BRG1 fusion protein (Homo sapiens, UniProt P51532); test: HiBiT-BRG1 cell-based degradation assay (Nano-Glo HiBiT lytic detection, 24 h); conditions: HeLa cell line expressing HiBit-BRG1 and LgBit, read-out: BRG1 HiBit Degradation Maximum (%)
# T2 construct: expressed in transfected cells
# Summary of the method: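 Luminescence from HiBiT/LgBiT complementation after lytic detection reagent was read following 24 h compound exposure of HeLa cells stably carrying HiBiT-BRG1 plus LgBiT (5000 cells/well). Signal scaled to % degradation using DMSO-treated cells as 0% and cells given 2 μM known BRM/BRG1 degrader as 100%.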
# T1 sequence (P51531 whole entry, the tested form may be a part): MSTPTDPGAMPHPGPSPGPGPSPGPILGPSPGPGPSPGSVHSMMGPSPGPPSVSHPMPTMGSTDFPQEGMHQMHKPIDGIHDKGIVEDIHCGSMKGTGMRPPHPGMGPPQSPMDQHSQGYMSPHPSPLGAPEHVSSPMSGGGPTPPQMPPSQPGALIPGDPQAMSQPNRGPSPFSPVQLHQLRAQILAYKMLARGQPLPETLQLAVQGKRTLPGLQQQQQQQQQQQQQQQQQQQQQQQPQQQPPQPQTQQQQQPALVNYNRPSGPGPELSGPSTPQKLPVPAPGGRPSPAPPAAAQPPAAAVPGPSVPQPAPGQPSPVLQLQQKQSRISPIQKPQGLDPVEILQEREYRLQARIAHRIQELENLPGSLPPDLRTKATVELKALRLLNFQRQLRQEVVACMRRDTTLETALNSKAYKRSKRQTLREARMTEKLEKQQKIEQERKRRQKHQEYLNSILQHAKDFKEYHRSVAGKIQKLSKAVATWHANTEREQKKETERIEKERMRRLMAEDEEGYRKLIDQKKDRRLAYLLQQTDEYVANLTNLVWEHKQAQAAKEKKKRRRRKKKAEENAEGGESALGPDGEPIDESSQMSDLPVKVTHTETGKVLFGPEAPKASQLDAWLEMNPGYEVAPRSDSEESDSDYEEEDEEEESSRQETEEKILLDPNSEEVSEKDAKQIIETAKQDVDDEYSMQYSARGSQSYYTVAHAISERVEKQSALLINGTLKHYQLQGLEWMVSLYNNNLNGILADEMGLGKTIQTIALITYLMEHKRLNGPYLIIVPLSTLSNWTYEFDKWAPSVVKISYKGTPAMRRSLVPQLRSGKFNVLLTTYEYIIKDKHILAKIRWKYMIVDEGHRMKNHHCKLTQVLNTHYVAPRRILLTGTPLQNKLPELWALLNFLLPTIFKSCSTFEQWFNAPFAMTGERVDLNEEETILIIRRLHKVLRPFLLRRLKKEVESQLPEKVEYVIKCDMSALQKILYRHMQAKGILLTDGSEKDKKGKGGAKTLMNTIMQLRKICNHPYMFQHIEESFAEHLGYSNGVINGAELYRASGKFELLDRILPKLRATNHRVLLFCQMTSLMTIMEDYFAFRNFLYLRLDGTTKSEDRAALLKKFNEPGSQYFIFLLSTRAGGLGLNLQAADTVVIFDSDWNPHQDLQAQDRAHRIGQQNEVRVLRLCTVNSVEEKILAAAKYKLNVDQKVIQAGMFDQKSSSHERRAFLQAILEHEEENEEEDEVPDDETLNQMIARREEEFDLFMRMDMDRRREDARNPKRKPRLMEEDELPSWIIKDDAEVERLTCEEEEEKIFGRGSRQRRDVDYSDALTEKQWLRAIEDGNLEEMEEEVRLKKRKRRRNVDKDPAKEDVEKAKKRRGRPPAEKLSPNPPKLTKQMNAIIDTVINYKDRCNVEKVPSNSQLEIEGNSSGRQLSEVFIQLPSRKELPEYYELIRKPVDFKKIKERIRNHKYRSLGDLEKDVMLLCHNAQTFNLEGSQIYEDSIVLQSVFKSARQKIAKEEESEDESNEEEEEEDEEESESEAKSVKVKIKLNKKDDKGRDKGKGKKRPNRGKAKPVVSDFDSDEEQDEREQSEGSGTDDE
# T2 sequence (P51532 whole entry, the tested form may be a part): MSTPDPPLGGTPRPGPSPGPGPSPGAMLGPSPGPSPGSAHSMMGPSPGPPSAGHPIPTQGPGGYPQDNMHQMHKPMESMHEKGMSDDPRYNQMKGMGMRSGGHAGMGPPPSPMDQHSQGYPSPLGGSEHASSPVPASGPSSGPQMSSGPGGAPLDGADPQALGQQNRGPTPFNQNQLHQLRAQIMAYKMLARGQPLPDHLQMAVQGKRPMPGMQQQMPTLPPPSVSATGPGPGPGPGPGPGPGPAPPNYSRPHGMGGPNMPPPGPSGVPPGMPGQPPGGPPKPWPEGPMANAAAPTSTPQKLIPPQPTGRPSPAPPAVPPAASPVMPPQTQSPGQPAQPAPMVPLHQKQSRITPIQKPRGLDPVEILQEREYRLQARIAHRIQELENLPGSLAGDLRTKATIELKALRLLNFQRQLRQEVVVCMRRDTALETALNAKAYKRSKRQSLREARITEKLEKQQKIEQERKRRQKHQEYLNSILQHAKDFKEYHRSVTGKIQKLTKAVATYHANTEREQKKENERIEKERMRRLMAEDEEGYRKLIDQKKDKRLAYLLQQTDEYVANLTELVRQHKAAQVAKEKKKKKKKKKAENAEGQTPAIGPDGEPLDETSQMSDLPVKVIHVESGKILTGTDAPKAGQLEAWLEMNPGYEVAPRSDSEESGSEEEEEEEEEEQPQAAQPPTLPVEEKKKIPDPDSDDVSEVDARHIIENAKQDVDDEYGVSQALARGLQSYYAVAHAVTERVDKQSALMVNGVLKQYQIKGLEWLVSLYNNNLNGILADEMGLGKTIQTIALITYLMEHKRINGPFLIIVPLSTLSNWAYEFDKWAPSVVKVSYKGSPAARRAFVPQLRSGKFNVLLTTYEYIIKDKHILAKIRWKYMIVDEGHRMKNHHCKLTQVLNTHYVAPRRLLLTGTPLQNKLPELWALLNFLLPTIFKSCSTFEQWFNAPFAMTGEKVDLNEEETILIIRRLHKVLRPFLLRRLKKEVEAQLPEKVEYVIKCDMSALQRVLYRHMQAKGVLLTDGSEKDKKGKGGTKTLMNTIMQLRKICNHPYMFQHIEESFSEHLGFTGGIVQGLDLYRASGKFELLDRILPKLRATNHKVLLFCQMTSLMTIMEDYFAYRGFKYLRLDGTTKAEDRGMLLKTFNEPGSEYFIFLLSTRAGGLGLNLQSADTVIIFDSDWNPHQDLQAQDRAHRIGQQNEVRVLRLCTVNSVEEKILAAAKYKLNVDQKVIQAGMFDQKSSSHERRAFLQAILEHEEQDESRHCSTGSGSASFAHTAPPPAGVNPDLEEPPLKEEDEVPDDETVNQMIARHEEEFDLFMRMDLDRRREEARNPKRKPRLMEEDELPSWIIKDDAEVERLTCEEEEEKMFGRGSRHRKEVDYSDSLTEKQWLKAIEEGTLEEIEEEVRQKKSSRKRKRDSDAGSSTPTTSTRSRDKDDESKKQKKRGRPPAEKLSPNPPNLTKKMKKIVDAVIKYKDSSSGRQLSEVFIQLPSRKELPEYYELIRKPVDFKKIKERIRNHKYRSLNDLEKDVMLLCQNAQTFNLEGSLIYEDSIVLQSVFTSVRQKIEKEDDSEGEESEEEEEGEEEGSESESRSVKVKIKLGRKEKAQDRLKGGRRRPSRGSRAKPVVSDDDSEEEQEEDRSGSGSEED
Structure (SMILES),BRM HiBit Degradation Maximum (%) (HiBit-BRM fusion protein),DC50 (HiBit-BRM fusion protein) [nM],Dmax [1] [%]
"CC(C)C(C(=O)N1C[C@H](O)C[C@H]1C(=O)N[C@@H](C)c1ccccc1)c1cc(N2CC3(CC(c4cc5nnc(-c6ccccc6O)cc5n4C4CCC4)C3)C2)no1 (stereo partly drawn) [Compound 49, (2S,4R)-1-[2-(3-{6-[5-cyclobutyl-3-(2-hydroxyphenyl)pyrrolo[3,2-c]pyridazin-6-yl]-2-azaspiro[3.3]heptan-2-yl}-1,2-oxazol-5-yl)-3-methylbutanoyl]-4-hydroxy-N-[(1S)-1-phenylethyl]pyrrolidine-2-carboxamide]",A (“A” indicates maximum degradation ≥75%),> 10,< 50
"CC(C)C(C(=O)N1C[C@H](O)C[C@H]1C(=O)NCc1ccc(F)cc1)c1cc(N2CC3(CC(c4cc5nnc(-c6ccccc6O)cc5n4C4CCC4)C3)C2)no1 (stereo partly drawn) [Compound 50, (2S,4R)-1-(2-(3-(6-(5-cyclobutyl-3-(2-hydroxyphenyl)-5H-pyrrolo[3,2-c]pyridazin-6-yl)-2-azaspiro[3.3]heptan-2-yl)isoxazol-5-yl)-3-methylbutanoyl)-N-(4-fluorobenzyl)-4-hydroxypyrrolidine-2-carboxamide]",A (“A” indicates maximum degradation ≥75%),> 10,< 50
"CC[C@H](C)NC(=O)[C@@H]1C[C@@H](O)CN1C(=O)C(c1cc(N2CC3(CC(c4cc5nnc(-c6ccccc6O)cc5n4C4CCC4)C3)C2)no1)C(C)C (stereo partly drawn) [Compound 51, (2S,4R)-N-((S)-sec-butyl)-1-(2-(3-(6-(5-cyclobutyl-3-(2-hydroxyphenyl)-5H-pyrrolo[3,2-c]pyridazin-6-yl)-2-azaspiro[3.3]heptan-2-yl)isoxazol-5-yl)-3-methylbutanoyl)-4-hydroxypyrrolidine-2-carboxamide]",A (“A” indicates maximum degradation ≥75%),> 10,< 50
"C#Cc1ccc(CNC(=O)[C@@H]2C[C@@H](O)CN2C(=O)C(c2cc(N3CC4(CC(c5cc6nnc(-c7ccccc7O)cc6n5C5CCC5)C4)C3)no2)C(C)C)c(OCCCOC)c1 (stereo partly drawn) [Compound 52, (2S,4R)-1-(2-(3-(6-(5-cyclobutyl-3-(2-hydroxyphenyl)-5H-pyrrolo[3,2-c]pyridazin-6-yl)-2-azaspiro[3.3]heptan-2-yl)isoxazol-5-yl)-3-methylbutanoyl)-N-(4-ethynyl-2-(3-methoxypropoxy)benzyl)-4-hydroxypyrrolidine-2-carboxamide]",A (“A” indicates maximum degradation ≥75%),< 10,< 50
"C#CCNC(=O)[C@@H]1C[C@@H](O)CN1C(=O)C(c1cc(N2CC3(CC(c4cc5nnc(-c6ccccc6O)cc5n4C4CCC4)C3)C2)no1)C(C)C (stereo partly drawn) [Compound 53, (2S,4R)-1-(2-(3-(6-(5-cyclobutyl-3-(2-hydroxyphenyl)-5H-pyrrolo[3,2-c]pyridazin-6-yl)-2-azaspiro[3.3]heptan-2-yl)isoxazol-5-yl)-3-methylbutanoyl)-4-hydroxy-N-(prop-2-yn-1-yl)pyrrolidine-2-carboxamide]",A (“A” indicates maximum degradation ≥75%),> 10,< 50
"CC(C)NC(=O)[C@@H]1C[C@@H](O)CN1C(=O)C(c1cc(N2CC3(CC(c4cc5nnc(-c6ccccc6O)cc5n4C4CCC4)C3)C2)no1)C(C)C (stereo partly drawn) [Compound 54, (2S,4R)-1-(2-(3-(6-(5-cyclobutyl-3-(2-hydroxyphenyl)-5H-pyrrolo[3,2-c]pyridazin-6-yl)-2-azaspiro[3.3]heptan-2-yl)isoxazol-5-yl)-3-methylbutanoyl)-4-hydroxy-N-isopropylpyrrolidine-2-carboxamide]",A (“A” indicates maximum degradation ≥75%),> 10,< 50
"CC(C)C(C(=O)N1C[C@H](O)C[C@H]1C(=O)NCC1CC1)c1cc(N2CC3(CC(c4cc5nnc(-c6ccccc6O)cc5n4C4CCC4)C3)C2)no1 (stereo partly drawn) [Compound 55, (2S,4R)-1-(2-(3-(6-(5-cyclobutyl-3-(2-hydroxyphenyl)-5H-pyrrolo[3,2-c]pyridazin-6-yl)-2-azaspiro[3.3]heptan-2-yl)isoxazol-5-yl)-3-methylbutanoyl)-N-(cyclopropylmethyl)-4-hydroxypyrrolidine-2-carboxamide]",A (“A” indicates maximum degradation ≥75%),> 10,< 50
"CC(C)C(C(=O)N1C[C@H](O)C[C@H]1C(=O)NC1CC1)c1cc(N2CC3(CC(c4cc5nnc(-c6ccccc6O)cc5n4C4CCC4)C3)C2)no1 (stereo partly drawn) [Compound 56, (2S,4R)-1-(2-(3-(6-(5-cyclobutyl-3-(2-hydroxyphenyl)-5H-pyrrolo[3,2-c]pyridazin-6-yl)-2-azaspiro[3.3]heptan-2-yl)isoxazol-5-yl)-3-methylbutanoyl)-N-cyclopropyl-4-hydroxypyrrolidine-2-carboxamide]",A (“A” indicates maximum degradation ≥75%),> 10,< 50
"C#Cc1ccc(CNC(=O)[C@@H]2C[C@@H](O)CN2C(=O)C(c2cc(N3CC4(CC(c5cc6nnc(-c7ccccc7O)cc6n5C5CCC5)C4)C3)no2)C(C)C)cc1 (stereo partly drawn) [Compound 57, (2S,4R)-1-(2-(3-(6-(5-cyclobutyl-3-(2-hydroxyphenyl)-5H-pyrrolo[3,2-c]pyridazin-6-yl)-2-azaspiro[3.3]heptan-2-yl)isoxazol-5-yl)-3-methylbutanoyl)-N-(4-ethynylbenzyl)-4-hydroxypyrrolidine-2-carboxamide]",A (“A” indicates maximum degradation ≥75%),< 10,< 50
"C#Cc1ccc(CNC(=O)[C@@H]2C[C@@H](O)CN2C(=O)C(c2cc(N3CC4(CC(c5cc6nnc(-c7ccccc7O)cc6n5C5CCC5)C4)C3)no2)C(C)C)c(OC)c1 (stereo partly drawn) [Compound 58, (2S,4R)-1-(2-(3-(6-(5-cyclobutyl-3-(2-hydroxyphenyl)-5H-pyrrolo[3,2-c]pyridazin-6-yl)-2-azaspiro[3.3]heptan-2-yl)isoxazol-5-yl)-3-methylbutanoyl)-N-(4-ethynyl-2-methoxybenzyl)-4-hydroxypyrrolidine-2-carboxamide]",A (“A” indicates maximum degradation ≥75%),< 10,< 50
"C#Cc1ccc(CNC(=O)[C@@H]2C[C@@H](O)CN2C(=O)C(c2cc(N3CC4(CC(c5cc6nnc(-c7ccccc7O)cc6n5C5CCC5)C4)C3)no2)C(C)C)c(Cl)c1 (stereo partly drawn) [Compound 59, (2S,4R)-N-(2-chloro-4-ethynylbenzyl)-1-(2-(3-(6-(5-cyclobutyl-3-(2-hydroxyphenyl)-5H-pyrrolo[3,2-c]pyridazin-6-yl)-2-azaspiro[3.3]heptan-2-yl)isoxazol-5-yl)-3-methylbutanoyl)-4-hydroxypyrrolidine-2-carboxamide]",A (“A” indicates maximum degradation ≥75%),> 10,< 50
"C#Cc1ccc([C@H](C)NC(=O)[C@@H]2C[C@@H](O)CN2C(=O)C(c2cc(N3CC4(CC(c5cc6nnc(-c7ccccc7O)cc6n5C5CCC5)C4)C3)no2)C(C)C)cc1 (stereo partly drawn) [Compound 60, (2S,4R)-1-(2-(3-(6-(5-cyclobutyl-3-(2-hydroxyphenyl)-5H-pyrrolo[3,2-c]pyridazin-6-yl)-2-azaspiro[3.3]heptan-2-yl)isoxazol-5-yl)-3-methylbutanoyl)-N-((S)-1-(4-ethynylphenyl)ethyl)-4-hydroxypyrrolidine-2-carboxamide]",A (“A” indicates maximum degradation ≥75%),< 10,< 50
